Common to all, as to assay type: functional
Assay [1] has as its target Dual specificity mitogen-activated protein kinase kinase 2 (Homo sapiens, UniProt P36507). As to the kind of experiment: Navigating the Kinome. Panel member name: MAP2K2.
The target in the next assay is SRSF protein kinase 1 (Homo sapiens, UniProt Q96SB4).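 Note: measured as one member of a kinome-wide kinase profiling panel.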
The target of assay [2] is Protein-tyrosine kinase 6 (Homo sapiens, UniProt Q13882).
Assay [3] has as its target T1, Serine/threonine-protein kinase 17A (Homo sapiens, UniProt Q9UEE5).
T1 sequence (Q9UEE5 whole entry): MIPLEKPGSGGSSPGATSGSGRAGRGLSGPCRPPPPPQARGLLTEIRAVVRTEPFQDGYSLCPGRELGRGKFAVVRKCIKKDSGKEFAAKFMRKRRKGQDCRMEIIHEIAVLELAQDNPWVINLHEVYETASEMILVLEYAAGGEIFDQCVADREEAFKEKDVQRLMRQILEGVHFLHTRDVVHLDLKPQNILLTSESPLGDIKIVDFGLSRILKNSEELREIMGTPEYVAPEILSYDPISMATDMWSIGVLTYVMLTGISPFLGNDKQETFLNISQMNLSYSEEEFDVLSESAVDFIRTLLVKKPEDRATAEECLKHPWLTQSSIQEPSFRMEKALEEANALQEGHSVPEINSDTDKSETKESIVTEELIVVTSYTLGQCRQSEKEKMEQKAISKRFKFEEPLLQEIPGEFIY

The target in assay [4] is Tyrosine-protein kinase SYK (Homo sapiens, UniProt P43405).
Assay [5] concerns the target MAP kinase-activated protein kinase 5 (Homo sapiens, UniProt Q8IW41).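 Note: measured as one member of a kinome panel.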
The target of assay [6] is Tyrosine-protein kinase Fer (Homo sapiens, UniProt P16591).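 Note: FER tested as one member of a kinome panel.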
Sequence of Tyrosine-protein kinase Fer (P16591 whole entry): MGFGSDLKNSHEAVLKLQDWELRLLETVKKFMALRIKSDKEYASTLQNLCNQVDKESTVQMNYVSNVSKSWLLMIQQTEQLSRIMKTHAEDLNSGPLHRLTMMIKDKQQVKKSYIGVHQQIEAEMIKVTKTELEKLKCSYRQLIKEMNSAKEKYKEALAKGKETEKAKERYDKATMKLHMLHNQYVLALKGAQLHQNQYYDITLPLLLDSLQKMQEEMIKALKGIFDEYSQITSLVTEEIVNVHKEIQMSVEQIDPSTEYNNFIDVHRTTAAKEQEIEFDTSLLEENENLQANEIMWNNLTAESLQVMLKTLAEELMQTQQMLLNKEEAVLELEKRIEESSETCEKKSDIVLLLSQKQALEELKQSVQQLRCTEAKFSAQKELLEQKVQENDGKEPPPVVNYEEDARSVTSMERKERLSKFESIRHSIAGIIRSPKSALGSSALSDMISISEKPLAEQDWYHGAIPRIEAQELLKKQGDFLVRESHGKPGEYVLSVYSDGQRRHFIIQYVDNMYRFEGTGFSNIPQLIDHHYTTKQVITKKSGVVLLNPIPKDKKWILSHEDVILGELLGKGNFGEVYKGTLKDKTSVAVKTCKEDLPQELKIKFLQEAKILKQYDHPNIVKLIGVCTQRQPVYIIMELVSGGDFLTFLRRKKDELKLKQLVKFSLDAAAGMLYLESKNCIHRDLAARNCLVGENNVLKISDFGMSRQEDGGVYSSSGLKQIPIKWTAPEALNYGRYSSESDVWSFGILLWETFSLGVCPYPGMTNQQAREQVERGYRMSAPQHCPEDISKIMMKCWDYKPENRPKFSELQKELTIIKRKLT
The target in assay [7] is Insulin-like growth factor 1 receptor (Homo sapiens, UniProt P08069). As to the kind of experiment: Navigating the Kinome. Panel member name: IGF1R.
Sequence of Insulin-like growth factor 1 receptor (P08069 31-736 limits assumed): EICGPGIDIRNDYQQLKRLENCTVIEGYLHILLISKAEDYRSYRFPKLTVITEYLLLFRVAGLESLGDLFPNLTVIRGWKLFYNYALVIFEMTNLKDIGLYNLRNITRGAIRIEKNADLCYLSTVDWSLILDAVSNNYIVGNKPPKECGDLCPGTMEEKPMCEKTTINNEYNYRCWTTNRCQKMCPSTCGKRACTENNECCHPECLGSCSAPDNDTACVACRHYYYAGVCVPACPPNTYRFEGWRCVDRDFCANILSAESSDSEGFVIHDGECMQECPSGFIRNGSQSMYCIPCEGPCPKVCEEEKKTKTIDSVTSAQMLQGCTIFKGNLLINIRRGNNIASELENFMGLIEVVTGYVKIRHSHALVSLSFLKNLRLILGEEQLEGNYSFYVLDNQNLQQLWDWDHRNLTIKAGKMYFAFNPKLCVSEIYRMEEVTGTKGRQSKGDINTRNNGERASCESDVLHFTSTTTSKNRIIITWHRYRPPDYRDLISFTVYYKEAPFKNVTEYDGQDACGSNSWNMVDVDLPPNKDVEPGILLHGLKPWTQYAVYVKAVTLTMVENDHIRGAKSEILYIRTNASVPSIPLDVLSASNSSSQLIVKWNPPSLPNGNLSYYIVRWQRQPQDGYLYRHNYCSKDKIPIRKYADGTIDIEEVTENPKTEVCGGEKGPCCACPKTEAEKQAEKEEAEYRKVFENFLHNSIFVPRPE
Sequence of Insulin-like growth factor 1 receptor (P08069 741-1367 limits assumed): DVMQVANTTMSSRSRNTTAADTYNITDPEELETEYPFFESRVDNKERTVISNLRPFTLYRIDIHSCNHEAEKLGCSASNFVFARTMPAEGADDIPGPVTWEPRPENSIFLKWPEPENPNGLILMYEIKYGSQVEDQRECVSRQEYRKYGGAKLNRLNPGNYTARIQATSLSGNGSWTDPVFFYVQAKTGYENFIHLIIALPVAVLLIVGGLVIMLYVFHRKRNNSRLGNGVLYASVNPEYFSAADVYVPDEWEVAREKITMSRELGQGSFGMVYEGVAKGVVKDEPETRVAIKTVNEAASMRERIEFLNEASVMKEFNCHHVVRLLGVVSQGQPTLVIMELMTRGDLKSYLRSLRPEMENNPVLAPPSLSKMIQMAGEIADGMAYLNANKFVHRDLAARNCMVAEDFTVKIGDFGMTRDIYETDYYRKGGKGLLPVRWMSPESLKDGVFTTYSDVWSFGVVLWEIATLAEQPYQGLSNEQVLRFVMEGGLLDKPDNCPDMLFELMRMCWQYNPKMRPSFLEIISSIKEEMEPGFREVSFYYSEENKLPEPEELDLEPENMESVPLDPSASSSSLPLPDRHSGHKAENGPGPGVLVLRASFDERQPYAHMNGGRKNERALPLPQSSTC
A further assay concerns the target Aurora kinase A (Homo sapiens, UniProt O14965).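 Note: value from the Navigating the Kinome kinase panel profiling, panel entry STK6.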
In assay [8] the target is T2, Dual specificity tyrosine-phosphorylation-regulated kinase 3 (Homo sapiens, UniProt O43781).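 Note: measured as one member of a broad kinase panel.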
T2 sequence (O43781 whole entry): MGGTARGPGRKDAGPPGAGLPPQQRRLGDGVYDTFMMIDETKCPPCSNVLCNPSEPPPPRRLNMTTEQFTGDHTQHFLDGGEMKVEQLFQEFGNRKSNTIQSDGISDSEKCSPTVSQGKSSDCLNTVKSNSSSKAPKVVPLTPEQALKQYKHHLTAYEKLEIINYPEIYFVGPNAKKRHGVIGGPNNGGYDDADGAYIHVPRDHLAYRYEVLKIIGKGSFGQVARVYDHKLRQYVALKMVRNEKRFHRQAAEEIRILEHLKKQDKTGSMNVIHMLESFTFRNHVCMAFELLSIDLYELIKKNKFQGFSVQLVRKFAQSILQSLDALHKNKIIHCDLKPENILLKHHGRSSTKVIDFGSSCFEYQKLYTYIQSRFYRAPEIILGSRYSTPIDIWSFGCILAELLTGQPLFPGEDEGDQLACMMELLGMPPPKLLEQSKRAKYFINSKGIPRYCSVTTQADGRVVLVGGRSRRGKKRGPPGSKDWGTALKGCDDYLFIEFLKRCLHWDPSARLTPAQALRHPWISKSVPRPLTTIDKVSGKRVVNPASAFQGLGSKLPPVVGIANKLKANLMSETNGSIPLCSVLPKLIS

Assay [9] deals with T3, Tyrosine-protein kinase JAK3 (Homo sapiens, UniProt P52333).
T3 sequence (P52333 whole entry): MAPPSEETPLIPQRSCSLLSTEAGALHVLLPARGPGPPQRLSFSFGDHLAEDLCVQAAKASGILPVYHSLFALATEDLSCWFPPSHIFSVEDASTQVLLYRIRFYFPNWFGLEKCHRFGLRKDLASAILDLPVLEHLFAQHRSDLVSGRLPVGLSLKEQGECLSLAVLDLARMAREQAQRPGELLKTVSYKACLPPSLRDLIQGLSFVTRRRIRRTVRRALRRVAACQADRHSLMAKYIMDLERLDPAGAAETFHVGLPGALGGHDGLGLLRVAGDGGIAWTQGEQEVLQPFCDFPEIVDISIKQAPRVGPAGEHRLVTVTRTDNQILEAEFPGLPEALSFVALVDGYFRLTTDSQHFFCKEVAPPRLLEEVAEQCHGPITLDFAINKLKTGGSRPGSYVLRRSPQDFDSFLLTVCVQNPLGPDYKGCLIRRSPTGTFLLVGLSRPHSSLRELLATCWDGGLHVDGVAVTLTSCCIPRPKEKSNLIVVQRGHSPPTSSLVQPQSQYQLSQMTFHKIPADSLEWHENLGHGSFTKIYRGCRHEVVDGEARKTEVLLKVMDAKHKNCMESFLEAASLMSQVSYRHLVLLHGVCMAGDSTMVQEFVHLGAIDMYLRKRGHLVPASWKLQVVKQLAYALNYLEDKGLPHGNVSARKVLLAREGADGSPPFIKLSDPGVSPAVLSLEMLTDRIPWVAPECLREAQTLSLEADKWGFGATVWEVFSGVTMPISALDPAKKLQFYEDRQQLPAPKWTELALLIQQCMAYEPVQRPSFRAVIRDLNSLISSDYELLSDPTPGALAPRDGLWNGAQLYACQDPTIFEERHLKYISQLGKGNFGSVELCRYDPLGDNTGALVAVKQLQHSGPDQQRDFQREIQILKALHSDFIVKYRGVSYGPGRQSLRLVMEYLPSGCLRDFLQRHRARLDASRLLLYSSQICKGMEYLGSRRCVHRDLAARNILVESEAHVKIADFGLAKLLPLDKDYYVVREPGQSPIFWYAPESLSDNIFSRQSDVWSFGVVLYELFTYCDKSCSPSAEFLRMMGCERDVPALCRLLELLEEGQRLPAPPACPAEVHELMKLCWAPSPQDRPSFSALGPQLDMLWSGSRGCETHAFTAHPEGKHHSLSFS

Assay [10] addresses Serine/threonine-protein kinase Nek2 (Homo sapiens, UniProt P51955).
Assay [11] deals with Serine/threonine-protein kinase pim-2 (Homo sapiens, UniProt Q9P1W9).
In assay [12] the target is Casein kinase II subunit alpha (Homo sapiens, UniProt P68400).
Sequence of Casein kinase II subunit alpha (P68400 whole entry): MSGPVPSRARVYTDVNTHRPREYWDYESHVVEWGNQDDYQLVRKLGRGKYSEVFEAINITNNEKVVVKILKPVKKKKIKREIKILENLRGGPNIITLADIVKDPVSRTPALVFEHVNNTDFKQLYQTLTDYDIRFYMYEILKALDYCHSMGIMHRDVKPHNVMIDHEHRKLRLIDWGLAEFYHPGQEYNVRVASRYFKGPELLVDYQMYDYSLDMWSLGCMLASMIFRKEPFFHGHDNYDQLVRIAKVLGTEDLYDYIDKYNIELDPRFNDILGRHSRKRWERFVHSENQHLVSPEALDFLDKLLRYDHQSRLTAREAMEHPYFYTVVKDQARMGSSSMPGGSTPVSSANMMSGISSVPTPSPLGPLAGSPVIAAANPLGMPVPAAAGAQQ
Assay [13] has as its target Megakaryocyte-associated tyrosine-protein kinase (Homo sapiens, UniProt P42679).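 Note: affinity measured as one member of a kinase panel (Navigating the Kinome) against MATK.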
The target of assay [14] is Tyrosine-protein kinase Fyn (Homo sapiens, UniProt P06241).
For assay [15], the target named is Mitogen-activated protein kinase 8 (Homo sapiens, UniProt P45983).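 Note: value comes from one member of a kinome-wide kinase profiling panel.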
Sequence of Mitogen-activated protein kinase 8 (P45983 whole entry): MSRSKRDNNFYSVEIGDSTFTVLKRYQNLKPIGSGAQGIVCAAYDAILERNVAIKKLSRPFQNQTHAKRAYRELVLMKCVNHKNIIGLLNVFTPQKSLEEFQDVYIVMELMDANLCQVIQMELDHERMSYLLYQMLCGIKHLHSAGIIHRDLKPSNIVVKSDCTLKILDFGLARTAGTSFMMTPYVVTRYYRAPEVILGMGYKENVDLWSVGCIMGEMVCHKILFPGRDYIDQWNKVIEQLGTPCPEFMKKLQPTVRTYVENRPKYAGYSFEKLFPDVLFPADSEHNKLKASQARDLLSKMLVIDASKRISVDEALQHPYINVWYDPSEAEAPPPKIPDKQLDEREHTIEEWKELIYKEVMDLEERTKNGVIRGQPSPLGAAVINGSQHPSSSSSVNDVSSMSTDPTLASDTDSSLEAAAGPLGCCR

Calls of active or inactive are those of the source.

Sequence of SRSF protein kinase 1 (Q96SB4 whole entry): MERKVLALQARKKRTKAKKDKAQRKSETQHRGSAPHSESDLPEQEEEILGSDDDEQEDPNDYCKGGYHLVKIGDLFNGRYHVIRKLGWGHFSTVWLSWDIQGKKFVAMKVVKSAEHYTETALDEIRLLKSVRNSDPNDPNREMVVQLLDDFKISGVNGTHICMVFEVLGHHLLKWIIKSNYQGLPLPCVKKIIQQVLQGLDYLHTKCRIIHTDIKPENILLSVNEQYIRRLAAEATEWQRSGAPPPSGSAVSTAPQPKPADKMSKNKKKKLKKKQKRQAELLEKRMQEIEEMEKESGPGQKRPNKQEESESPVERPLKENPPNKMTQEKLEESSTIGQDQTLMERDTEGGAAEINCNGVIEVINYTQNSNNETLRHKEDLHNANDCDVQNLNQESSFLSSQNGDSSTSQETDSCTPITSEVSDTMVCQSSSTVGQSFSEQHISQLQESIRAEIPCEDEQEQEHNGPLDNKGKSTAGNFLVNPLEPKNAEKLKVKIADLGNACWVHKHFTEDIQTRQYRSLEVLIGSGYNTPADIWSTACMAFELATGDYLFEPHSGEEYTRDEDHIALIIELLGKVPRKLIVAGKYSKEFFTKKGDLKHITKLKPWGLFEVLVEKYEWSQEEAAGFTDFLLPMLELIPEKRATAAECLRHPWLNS
Sequence of Megakaryocyte-associated tyrosine-protein kinase (P42679 whole entry): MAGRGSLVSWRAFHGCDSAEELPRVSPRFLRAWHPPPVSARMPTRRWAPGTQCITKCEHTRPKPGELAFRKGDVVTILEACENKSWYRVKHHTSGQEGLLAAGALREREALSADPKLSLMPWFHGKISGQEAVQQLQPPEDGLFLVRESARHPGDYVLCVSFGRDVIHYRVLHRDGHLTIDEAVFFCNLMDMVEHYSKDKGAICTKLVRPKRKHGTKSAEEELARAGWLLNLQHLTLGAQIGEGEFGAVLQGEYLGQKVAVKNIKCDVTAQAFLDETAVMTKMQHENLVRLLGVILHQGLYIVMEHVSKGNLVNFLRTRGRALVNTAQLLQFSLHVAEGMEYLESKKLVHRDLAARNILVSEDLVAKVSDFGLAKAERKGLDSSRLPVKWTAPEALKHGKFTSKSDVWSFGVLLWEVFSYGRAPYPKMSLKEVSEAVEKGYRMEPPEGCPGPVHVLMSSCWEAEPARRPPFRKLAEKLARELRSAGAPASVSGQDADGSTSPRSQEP
Sequence of Dual specificity mitogen-activated protein kinase kinase 2 (P36507 whole entry): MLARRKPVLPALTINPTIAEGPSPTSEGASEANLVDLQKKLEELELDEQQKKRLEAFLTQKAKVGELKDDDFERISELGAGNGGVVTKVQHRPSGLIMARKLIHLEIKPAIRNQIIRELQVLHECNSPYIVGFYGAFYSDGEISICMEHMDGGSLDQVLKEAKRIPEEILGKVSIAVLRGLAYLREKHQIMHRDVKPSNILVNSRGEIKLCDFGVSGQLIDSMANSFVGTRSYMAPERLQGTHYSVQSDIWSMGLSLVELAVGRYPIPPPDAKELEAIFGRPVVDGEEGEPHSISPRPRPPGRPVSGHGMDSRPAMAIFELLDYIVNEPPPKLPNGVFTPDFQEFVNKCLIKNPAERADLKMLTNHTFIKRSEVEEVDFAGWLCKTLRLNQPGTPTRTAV
Sequence of Aurora kinase A (O14965 whole entry): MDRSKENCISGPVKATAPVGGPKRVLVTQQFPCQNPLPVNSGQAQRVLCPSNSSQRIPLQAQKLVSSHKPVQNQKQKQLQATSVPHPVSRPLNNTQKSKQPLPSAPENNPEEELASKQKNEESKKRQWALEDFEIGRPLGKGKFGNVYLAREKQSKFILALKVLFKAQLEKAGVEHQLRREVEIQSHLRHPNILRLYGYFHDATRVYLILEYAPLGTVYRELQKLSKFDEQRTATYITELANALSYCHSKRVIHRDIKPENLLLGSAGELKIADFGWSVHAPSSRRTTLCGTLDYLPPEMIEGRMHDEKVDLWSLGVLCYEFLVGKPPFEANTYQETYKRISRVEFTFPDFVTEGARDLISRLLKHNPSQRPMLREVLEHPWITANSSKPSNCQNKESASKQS

With `Cc1ccc(-n2nc(C(C)(C)C)cc2NC(=O)Nc2ccc(OCCN3CCOCC3)c3ccccc23)cc1` [DORAMAPIMOD], in [1], the Ki is > 3980 nM (inactive).

`NC(COc1cncc(-c2ccc3c(c2)C(=Cc2ccco2)C(=O)N3)c1)Cc1c[nH]c2ccccc12` (stereo not given): the inhibition constant Ki on SRSF protein kinase 1 was 79.4 nM (active); in [2], > 2510 nM (inactive); in assay [3], 15.8 nM (active); in assay [4], 1580 nM (active); in [5], > 1580 nM (inactive); in assay [6], 398 nM (active). Further, the Ki in assay [7] was > 1000 nM (inactive); on Aurora kinase A, > 1580 nM (inactive); in assay [8], 7.94 nM (active); in assay [9] it was 50.1 nM (active); in assay [10] it was 2000 nM (active); in assay [11], 1 nM (active). Also, the Ki in assay [12] was > 6310 nM (inactive); in assay [13], > 2000 nM (inactive); in [14], 398 nM (active); in assay [15] it was 316 nM (active).

As for `NC(=O)c1cc(-c2ccnc(N)n2)[nH]c1-c1ccc(Cl)cc1Cl`, the Ki was 1260 nM (active) at SRSF protein kinase 1; > 2510 nM (inactive) in assay [2]; 25.1 nM (active) in assay [3]; > 1580 nM (inactive) in assay [4]; > 1580 nM (inactive) in [5]; > 1580 nM (inactive) in assay [6]. Also, the Ki in assay [7] is > 2000 nM (inactive); at Aurora kinase A, > 1580 nM (inactive); in assay [8] it was 10 nM (active); in assay [9], 1000 nM (active); in [10], > 10000 nM (inactive); in [11], > 1580 nM (inactive). In addition, the Ki in assay [12] is 200 nM (active); in assay [13], > 2000 nM (inactive); in assay [14] it was > 794 nM (inactive); in assay [1] it was > 3980 nM (inactive); in assay [15], 398 nM (active). Further, the pKi on SRSF protein kinase 1 worked out at 5.9; in assay [3], 7.6; in [8], 8; in assay [9] it was 6; in assay [12], 6.7; in assay [15] it was 6.4.

What is called Ki is the dissociation constant of the complex between target and ligand, obtained from inhibition or displacement. The term pKi denotes −log10 of the Ki, conventionally taken in molar units.
